The values that follow are results of earlier work, collected in patent publication US10117917B2, “Peptides and combination of peptides for use in immunotherapy against various cancers” (immatics biotechnologies GmbH, priority 2015, dated 2018).

The data set relates to advanced non-resectable HCC. To be noted: advanced non-resectable HCC patients; cited from earlier work.

Consider `CNC(=O)c1cc(Oc2ccc(NC(=O)Nc3ccc(Cl)c(C(F)(F)F)c3)cc2)ccn1` [Sorafenib], for which the increase of survival result is “about 3 months”.
